ChEMBL document CHEMBL4311999, “3-Hydrazinoisatin-based benzenesulfonamides as novel carbonic anhydrase inhibitors endowed with anticancer activity: Synthesis, in vitro biological evaluation and in silico insights” (Eur J Med Chem, 2019)

Tests used:
Carbonic anhydrase 9 = Carbonic anhydrase 9 (Homo sapiens, UniProt Q16790); experiment: Inhibition of recombinant human carbonic anhydrase 9 preincubated for 15 mins by phenol red dye based stopped flow CO2 hydration assay
RXF 393 = experiment: Growth inhibition of human RXF393 cells at 10 uM incubated for 48 hrs by sulforhodamine B assay relative to control; type: functional; settings: RXF 393, 48 h, read-out: GI
BT-549 = experiment: Growth inhibition of human BT549 cells at 10 uM incubated for 48 hrs by sulforhodamine B assay relative to control; type: functional; settings: BT-549, 48 h, read-out: GI
K562 = experiment: Growth inhibition of human K562 cells at 10 uM incubated for 48 hrs by sulforhodamine B assay relative to control; type: functional; settings: K562, 48 h, read-out: GI
NCI/ADR-RES = experiment: Growth inhibition of human NCI/ADR-RES cells at 10 uM incubated for 48 hrs by sulforhodamine B assay relative to control; type: functional; settings: read-out: GI
T47D = experiment: Growth inhibition of human T47D cells at 10 uM incubated for 48 hrs by sulforhodamine B assay relative to control; type: functional; settings: read-out: GI
MOLT-4 = experiment: Growth inhibition of human MOLT4 cells at 10 uM incubated for 48 hrs by sulforhodamine B assay relative to control; type: functional; settings: MOLT-4, 48 h, read-out: GI
NCI-H522 = experiment: Growth inhibition of human NCI-H522 cells at 10 uM incubated for 48 hrs by sulforhodamine B assay relative to control; type: functional; settings: NCI-H522, 48 h, read-out: GI
MDA-MB-468 = experiment: Growth inhibition of human MDA-MB-468 cells at 10 uM incubated for 48 hrs by sulforhodamine B assay relative to control; type: functional; settings: MDA-MB-468, 48 h, read-out: GI
NCI-H460 = experiment: Growth inhibition of human NCI-H460 cells at 10 uM incubated for 48 hrs by sulforhodamine B assay relative to control; type: functional; settings: NCI-H460, 48 h, read-out: GI
OVCAR-8 = experiment: Growth inhibition of human OVCAR8 cells at 10 uM incubated for 48 hrs by sulforhodamine B assay relative to control; type: functional; settings: OVCAR-8, 48 h, read-out: GI
PC-3 = experiment: Growth inhibition of human PC3 cells at 10 uM incubated for 48 hrs by sulforhodamine B assay relative to control; type: functional; settings: PC-3, 48 h, read-out: GI
SNB-75 = experiment: Growth inhibition of human SNB75 cells at 10 uM incubated for 48 hrs by sulforhodamine B assay relative to control; type: functional; settings: SNB-75, 48 h, read-out: GI
MCF7 = experiment: Growth inhibition of human MCF7 cells at 10 uM incubated for 48 hrs by sulforhodamine B assay relative to control; type: functional; settings: MCF7, 48 h, read-out: GI
A549 = experiment: Growth inhibition of human A549/ATCC cells at 10 uM incubated for 48 hrs by sulforhodamine B assay relative to control; type: functional; settings: A549, 48 h, read-out: GI
RPMI-8226 = experiment: Growth inhibition of human RPMI8226 cells at 10 uM incubated for 48 hrs by sulforhodamine B assay relative to control; type: functional; settings: RPMI-8226, 48 h, read-out: GI
HOP-62 = experiment: Growth inhibition of human HOP62 cells at 10 uM incubated for 48 hrs by sulforhodamine B assay relative to control; type: functional; settings: HOP-62, 48 h, read-out: GI
EKVX = experiment: Growth inhibition of human EKVX cells at 10 uM incubated for 48 hrs by sulforhodamine B assay relative to control; type: functional; settings: read-out: GI
CCRF-CEM = experiment: Growth inhibition of human CCRF-CEM cells at 10 uM incubated for 48 hrs by sulforhodamine B assay relative to control; type: functional; settings: read-out: GI
MDA-MB-231 = experiment: Growth inhibition of human MDA-MB-231 cells at 10 uM incubated for 48 hrs by sulforhodamine B assay relative to control; type: functional; settings: MDA-MB-231, 48 h, read-out: GI
HCT-15 = experiment: Growth inhibition of human HCT15 cells at 10 uM incubated for 48 hrs by sulforhodamine B assay relative to control; type: functional; settings: HCT-15, 48 h, read-out: GI
UACC-62 = experiment: Growth inhibition of human UACC62 cells at 10 uM incubated for 48 hrs by sulforhodamine B assay relative to control; type: functional; settings: UACC-62, 48 h, read-out: GI
HCT-116 = experiment: Growth inhibition of human HCT116 cells at 10 uM incubated for 48 hrs by sulforhodamine B assay relative to control; type: functional; settings: HCT-116, 48 h, read-out: GI
OVCAR-5 = experiment: Growth inhibition of human OVCAR5 cells at 10 uM incubated for 48 hrs by sulforhodamine B assay relative to control; type: functional; settings: OVCAR-5, 48 h, read-out: GI
ACHN = experiment: Growth inhibition of human ACHN cells at 10 uM incubated for 48 hrs by sulforhodamine B assay relative to control; type: functional; settings: read-out: GI
UO-31 = experiment: Growth inhibition of human UO31 cells at 10 uM incubated for 48 hrs by sulforhodamine B assay relative to control; type: functional; settings: UO-31, 48 h, read-out: GI
NCI-H226 = experiment: Growth inhibition of human NCI-H226 cells at 10 uM incubated for 48 hrs by sulforhodamine B assay relative to control; type: functional; settings: NCI-H226, 48 h, read-out: GI
TK-10 = experiment: Growth inhibition of human TK10 cells at 10 uM incubated for 48 hrs by sulforhodamine B assay relative to control; type: functional; settings: TK-10, 48 h, read-out: GI
SF-539 = experiment: Growth inhibition of human SF539 cells at 10 uM incubated for 48 hrs by sulforhodamine B assay relative to control; type: functional; settings: SF-539, 48 h, read-out: GI
Carbonic anhydrase 2 = Carbonic anhydrase 2 (Homo sapiens, UniProt P00918); experiment: Inhibition of recombinant human carbonic anhydrase 2 preincubated for 15 mins by phenol red dye based stopped flow CO2 hydration assay
Carbonic anhydrase 1 = Carbonic anhydrase 1 (Homo sapiens, UniProt P00915); experiment: Inhibition of recombinant human carbonic anhydrase 1 preincubated for 15 mins by phenol red dye based stopped flow CO2 hydration assay
Carbonic anhydrase 12 = Carbonic anhydrase 12 (Homo sapiens, UniProt O43570); experiment: Inhibition of recombinant human carbonic anhydrase 12 preincubated for 15 mins by phenol red dye based stopped flow CO2 hydration assay
SF-268 = experiment: Growth inhibition of human SF268 cells at 10 uM incubated for 48 hrs by sulforhodamine B assay relative to control; type: functional; settings: SF-268, 48 h, read-out: GI
786-0 = experiment: Growth inhibition of human 786-0 cells at 10 uM incubated for 48 hrs by sulforhodamine B assay relative to control; type: functional; settings: 786-0, 48 h, read-out: GI
OVCAR-4 = experiment: Growth inhibition of human OVCAR4 cells at 10 uM incubated for 48 hrs by sulforhodamine B assay relative to control; type: functional; settings: OVCAR-4, 48 h, read-out: GI
SNB-19 = experiment: Growth inhibition of human SNB19 cells at 10 uM incubated for 48 hrs by sulforhodamine B assay relative to control; type: functional; settings: SNB-19, 48 h, read-out: GI
CAKI-1 = experiment: Growth inhibition of human Caki1 cells at 10 uM incubated for 48 hrs by sulforhodamine B assay relative to control; type: functional; settings: CAKI-1, 48 h, read-out: GI
Hs-578T = experiment: Growth inhibition of human Hs 578T cells at 10 uM incubated for 48 hrs by sulforhodamine B assay relative to control; type: functional; settings: read-out: GI
SK-MEL-5 = experiment: Growth inhibition of human SK-MEL-5 cells at 10 uM incubated for 48 hrs by sulforhodamine B assay relative to control; type: functional; settings: SK-MEL-5, 48 h, read-out: GI
SR = experiment: Growth inhibition of human SR cells at 10 uM incubated for 48 hrs by sulforhodamine B assay relative to control; type: functional; settings: read-out: GI

Carbonic anhydrase 1, sequence (P00915 whole entry): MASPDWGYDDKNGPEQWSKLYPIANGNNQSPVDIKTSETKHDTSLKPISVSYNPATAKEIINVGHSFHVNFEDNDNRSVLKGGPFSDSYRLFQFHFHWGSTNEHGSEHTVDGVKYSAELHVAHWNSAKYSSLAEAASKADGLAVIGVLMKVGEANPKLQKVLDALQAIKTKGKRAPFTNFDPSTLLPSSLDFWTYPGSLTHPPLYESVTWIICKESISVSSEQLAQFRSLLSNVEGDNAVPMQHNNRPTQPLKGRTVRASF
Carbonic anhydrase 12, sequence (O43570 whole entry): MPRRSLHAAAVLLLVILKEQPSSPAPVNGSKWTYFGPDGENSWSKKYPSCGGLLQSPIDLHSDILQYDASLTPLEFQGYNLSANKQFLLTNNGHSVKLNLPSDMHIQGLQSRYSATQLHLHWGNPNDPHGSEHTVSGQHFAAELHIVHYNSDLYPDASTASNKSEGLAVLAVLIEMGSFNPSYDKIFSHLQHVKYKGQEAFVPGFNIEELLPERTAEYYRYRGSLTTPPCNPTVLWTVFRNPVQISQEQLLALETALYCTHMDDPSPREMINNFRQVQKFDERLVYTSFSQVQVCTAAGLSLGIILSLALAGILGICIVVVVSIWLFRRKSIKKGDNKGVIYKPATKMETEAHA

CCCN1C(=O)/C(=N\Nc2ccc(S(N)(=O)=O)cc2)c2cc(Cl)ccc21
Ki (Carbonic anhydrase 9): 0.0131 µM

CCCN1C(=O)/C(=N\Nc2ccc(S(N)(=O)=O)cc2)c2cc(Br)ccc21
inhibition of growth at 10 µM (RXF 393): 23% | Ki (Carbonic anhydrase 9): 0.0558 µM | inhibition of growth at 10 µM (BT-549): 10% | inhibition of growth at 10 µM (K562): 21% | inhibition of growth at 10 µM (NCI/ADR-RES): 16% | inhibition of growth at 10 µM (T47D): 19% | inhibition of growth at 10 µM (MOLT-4): 12% | inhibition of growth at 10 µM (NCI-H522): 31% | inhibition of growth at 10 µM (MDA-MB-468): 14% | inhibition of growth at 10 µM (NCI-H460): 22% | inhibition of growth at 10 µM (OVCAR-8): 24% | inhibition of growth at 10 µM (PC-3): 24% | inhibition of growth at 10 µM (SNB-75): 27% | inhibition of growth at 10 µM (MCF7): 20% | inhibition of growth at 10 µM (A549): 19% | inhibition of growth at 10 µM (RPMI-8226): 26% | inhibition of growth at 10 µM (HOP-62): 13% | inhibition of growth at 10 µM (EKVX): 11% | inhibition of growth at 10 µM (CCRF-CEM): 14% | inhibition of growth at 10 µM (MDA-MB-231): 10% | inhibition of growth at 10 µM (HCT-15): 12% | inhibition of growth at 10 µM (UACC-62): 30% | inhibition of growth at 10 µM (HCT-116): 30% | inhibition of growth at 10 µM (OVCAR-5): 11% | inhibition of growth at 10 µM (ACHN): 23% | inhibition of growth at 10 µM (UO-31): 18% | inhibition of growth at 10 µM (NCI-H226): 18% | inhibition of growth at 10 µM (TK-10): 10% | inhibition of growth at 10 µM (SF-539): 13%

NS(=O)(=O)c1ccc(N/N=C2\C(=O)Nc3ccc(Br)cc32)cc1
Ki (Carbonic anhydrase 9): 0.0248 µM | Ki (Carbonic anhydrase 2): 0.0956 µM | Ki (Carbonic anhydrase 1): 3.71 µM | Ki (Carbonic anhydrase 12): 0.0659 µM

NS(=O)(=O)c1ccc(N/N=C2\C(=O)Nc3ccc(Cl)cc32)cc1 [GW280670X]
Ki (Carbonic anhydrase 9): 0.0083 µM | Ki (Carbonic anhydrase 2): 0.0359 µM | Ki (Carbonic anhydrase 1): 1.81 µM | Ki (Carbonic anhydrase 12): 0.0119 µM

CCN1C(=O)/C(=N\Nc2ccc(S(N)(=O)=O)cc2)c2cc(Br)ccc21
Ki (Carbonic anhydrase 9): 0.042 µM

CCOC(=O)CN1C(=O)/C(=N\Nc2ccc(S(N)(=O)=O)cc2)c2ccccc21
Ki (Carbonic anhydrase 9): 0.0159 µM

NS(=O)(=O)c1ccc(N/N=C2\C(=O)N(Cc3ccccc3)c3ccc(Br)cc32)cc1
inhibition of growth at 10 µM (RXF 393): 38% | inhibition of growth at 10 µM (SF-268): 13% | Ki (Carbonic anhydrase 9): 0.0605 µM | inhibition of growth at 10 µM (786-0): 19% | inhibition of growth at 10 µM (NCI/ADR-RES): 13% | inhibition of growth at 10 µM (T47D): 19% | inhibition of growth at 10 µM (MOLT-4): 21% | inhibition of growth at 10 µM (NCI-H522): 29% | inhibition of growth at 10 µM (MDA-MB-468): 13% | inhibition of growth at 10 µM (NCI-H460): 20% | inhibition of growth at 10 µM (OVCAR-8): 26% | inhibition of growth at 10 µM (OVCAR-4): 19% | inhibition of growth at 10 µM (PC-3): 21% | inhibition of growth at 10 µM (SNB-19): 27% | inhibition of growth at 10 µM (SNB-75): 46% | inhibition of growth at 10 µM (MCF7): 23% | inhibition of growth at 10 µM (A549): 19% | inhibition of growth at 10 µM (CAKI-1): 18% | inhibition of growth at 10 µM (RPMI-8226): 10% | inhibition of growth at 10 µM (CCRF-CEM): 19% | inhibition of growth at 10 µM (MDA-MB-231): 23% | inhibition of growth at 10 µM (Hs-578T): 27% | inhibition of growth at 10 µM (UACC-62): 30% | Ki (Carbonic anhydrase 1): > 10 µM | inhibition of growth at 10 µM (HCT-116): 24% | inhibition of growth at 10 µM (OVCAR-5): 12% | inhibition of growth at 10 µM (ACHN): 22% | inhibition of growth at 10 µM (UO-31): 18% | inhibition of growth at 10 µM (SK-MEL-5): 17% | inhibition of growth at 10 µM (SR): 20% | inhibition of growth at 10 µM (NCI-H226): 33% | inhibition of growth at 10 µM (SF-539): 25%
